Test: Log P by HPLC on reversed phase columns (EEC directive 79/831 Annex V.A8; methods [a], [b], [c])
Assay type: physicochemical
Procedure, shortened: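 Log P derived from retention times, interpolated linearly between bracketing straight-chain alkan-2-ones (3–16 carbons) of known Log P. Eluents ran acetonitrile 10% to 95% against water with 0.1% formic acid ([a], acidic), 0.001 M ammonium acetate ([b], neutral) or 0.1% phosphoric acid ([c], acidic); UV read-out.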

| Compound | LogP |
| --- | --- |
| CC(C)C(O)(Cn1cncc1C#N)c1ccc(F)cc1Br (stereo not shown) [I-424] | 2.69^[a] |
| N#Cc1cncn1CC(O)c1cnc(Oc2ccc(Cl)cc2)cc1C(F)(F)F (stereo not shown) [I-120] | 2.87^[a] |
| N#Cc1cncn1CC(O)c1ccc(Oc2ccc(S(F)(F)(F)(F)F)cc2)nc1Cl (stereo not shown) [I-68] | 3.15^[a] |
| OC(Cn1cncc1Cl)c1ccc(Oc2ccc(C(F)(F)F)cc2)cc1C(F)(F)F (stereo not shown) [I-35] | 3.00^[a] |
| CCOC(Cn1cncc1Br)c1ccc(Oc2ccc(Cl)cc2)cc1C(F)(F)F (stereo not shown) [I-33] | 4.16^[a] |
| OC(Cn1cncc1Cl)c1ccc(Oc2ccc(Br)cc2)cc1Br (stereo not shown) [I-45] | 2.71^[a] |
| C=CCC(O)(Cn1cncc1C#N)C1(Cl)CC1 (stereo not shown) [I-669] | 1.98^[a] |
| OC(Cn1cncc1Cl)c1ccc(Oc2ccccc2)cc1F (stereo not shown) [I-30] | 1.99^[a] |
| CC(O)(Cn1cncc1C#N)c1cnc(Oc2ccc(Cl)nc2)cc1C(F)(F)F (stereo not shown) [I-360] | 2.43^[a] |
| CCCC(O)(Cn1cncc1C#N)c1ccccc1C(F)(F)F (stereo not shown) [I-313] | 2.66^[a] |
| CC(C)(C)CC(O)(Cn1cncc1C#N)c1ccccc1F (stereo not shown) [I-274] | 2.92^[a] |
| CCCCCC(O)(Cn1cncc1C#N)c1ccccc1C(F)(F)F (stereo not shown) [I-346] | 3.23^[a] |
| N#Cc1cncn1CC(O)c1cnc(Oc2ccc(S(F)(F)(F)(F)F)cc2)cc1C(F)(F)F (stereo not shown) [I-96] | 3.44^[a] |
| N#Cc1cncn1CC(O)(c1ccc(F)cc1F)C1(Cl)CC1 (stereo not shown) [I-355] | 2.28^[a] |
| N#Cc1cncn1CC(O)(c1ccc(F)c(Cl)c1Cl)C1(Cl)CC1 (stereo not shown) [I-618] | 2.58^[a] |
| Cc1ccccc1C(O)(Cn1cncc1C#N)C1(Cl)CC1 (stereo not shown) [I-278] | 1.29^[a] |
| OC(Cn1cncc1F)c1ccc(Oc2ccc(Cl)cc2)cc1C(F)(F)F (stereo not shown) [I-98] | 2.39^[a] |
| COc1ccc(Oc2ccc(C(O)Cn3cncc3Cl)c(Cl)n2)c(Cl)c1 (stereo not shown) [I-16] | 2.23^[a] |
| CC(C)C(O)(Cn1cncc1C#N)c1ccc(Cl)cc1Br (stereo not shown) [I-416] | 3.02^[a] |
| N#Cc1cncn1CC(O)c1ccc(Oc2ccc(Br)nc2)cc1Cl (stereo not shown) [I-73] | 2.47^[a] |
| CC(C)(C)C#Cc1ccc(C(O)(Cn2cncc2C#N)C2(Cl)CC2)c(F)c1 (stereo not shown) [I-653] | 3.79^[a] |
| N#Cc1cncn1CC(O)c1ccc(Oc2ccc(C(F)(F)F)cc2)nc1C(F)(F)F (stereo not shown) [I-149] | 3.13^[a] |
| CCCC#Cc1ccc(C(O)(Cn2cncc2C#N)C2(Cl)CC2)c(F)c1 (stereo not shown) [I-652] | 3.48^[a] |
| O=C(Cn1cncc1F)c1ccc(Oc2ccc(S(F)(F)(F)(F)F)cc2)nc1C(F)(F)F [IX-136] | 3.06^[a] |

| Compound | LogP |
| --- | --- |
| CC(O)(Cn1cncc1C#N)c1cnc(Oc2ccc(Br)nc2)cc1C(F)(F)F (stereo not shown) [I-362] | 2.58^[a] |
| OC(CCCC1CCCCC1)(Cn1cncc1C(F)(F)F)C1(Cl)CC1 (stereo not shown) [I-676] | 5.19^[a] |
| N#Cc1cncn1CC(O)(c1ccc(Cl)cc1F)C1(F)CC1 (stereo not shown) [I-356] | 2.36^[a] |
| N#Cc1cncn1CC(O)(c1cc(F)c(F)cc1F)C1(F)CC1 (stereo not shown) [I-521] | 2.18^[a] |
| N#Cc1cncn1CC(O)(c1ccc(Cl)nc1Cl)C1(Cl)CC1 (stereo not shown) [I-597] | 2.12^[a] |
| C#CC(O)(Cn1cncc1C#N)C1(F)CC1 (stereo not shown) [I-654] | 1.11^[a] |
| N#Cc1cncn1CC(O)(c1cc(F)c(F)c(Cl)c1)C1(F)CC1 (stereo not shown) [I-476] | 2.54^[a] |
| N#Cc1cncn1CC(=O)c1ccc(Oc2ccc(S(F)(F)(F)(F)F)cc2)nc1C(F)(F)F [IX-135] | 3.55^[a] |
| OC(Cn1cncc1Cl)c1ccc(Oc2ccc(C(F)(F)F)cc2)c(Br)c1 (stereo not shown) [I-12] | 2.75^[a] |
| N#Cc1cncn1CC(O)(c1ccc(Cl)cc1F)C1CCCC1 (stereo not shown) [I-458] | 3.12^[a] |
| N#Cc1cncn1CC(O)(CCC1CCCC1)C1(F)CC1 (stereo not shown) [I-598] | 3.00^[a] |
| N#Cc1cncn1CC(O)c1cnc(Oc2ccc(OC(F)(F)F)cc2)cc1C(F)(F)F (stereo not shown) [I-125] | 3.35^[a] |
| CCCC(O)(Cn1cncc1C#N)c1ccc(Cl)cc1Cl (stereo not shown) [I-292] | 3.14^[a] |
| CC(C)(C)C(O)(Cn1cncc1Cl)c1cc2cc(OC(F)(F)F)ccc2o1 (stereo not shown) [I-215] | 2.75^[a] |
| N#Cc1cncn1CC(O)(c1ccc(Cl)c(Br)c1)C1(F)CC1 (stereo not shown) [I-538] | 2.71^[a] |
| C=CCC(O)(Cn1cncc1C#N)C1(F)CC1 (stereo not shown) [I-664] | 1.56^[a] |
| N#Cc1cncn1CC(O)(c1c(Cl)ccc(Cl)c1F)C1(F)CC1 (stereo not shown) [I-564] | 2.39^[a] |
| N#Cc1cncn1CC(O)(c1cc(F)c(Cl)cc1Cl)C1(Cl)CC1 (stereo not shown) [I-585] | 2.75^[a] |
| N#Cc1cncn1CC(O)(CC1CC1)c1ccc(C(F)(F)F)cc1Br (stereo not shown) [I-436] | 2.90^[a] |
| N#Cc1cncn1CC(O)(c1c(F)cc(F)cc1Br)C1(F)CC1 (stereo not shown) [I-547] | 2.27^[a] |
| N#Cc1cncn1CC(O)c1ccc(Oc2ccc(Br)nc2)nc1C(F)(F)F (stereo not shown) [I-154] | 2.46^[a] |
| C[Si](C)(C)CC(O)(Cn1cncc1C#N)c1ccc(OC(F)(F)F)cc1 (stereo not shown) [I-270] | 3.70^[a] |
| CC(=O)OC(Cn1cncc1C#N)c1ccc(Oc2ccc(Cl)cc2)cc1C(F)(F)F (stereo not shown) [I-86] | 3.7^8[a] |
| N#Cc1cncn1CC(O)(c1cc(Cl)cc(Cl)c1F)C1(F)CC1 (stereo not shown) [I-572] | 2.66^[a] |

| Compound | LogP |
| --- | --- |
| N#Cc1cncn1CC(O)c1ccc(Oc2ccc(Cl)nc2)cc1C(F)(F)F (stereo not shown) [I-10] | 2.59^[a] |
| CC(O)(Cn1cncc1C#N)c1cnc(Oc2ccc(C(F)F)cc2)cc1C(F)(F)F (stereo not shown) [I-341] | 2.80^[a] |
| N#Cc1cncn1CC(O)(c1ccc(C#CC2CC2)cc1Cl)C1(F)CC1 (stereo not shown) [I-639] | 3.03^[a] |
| CC(O)(Cn1cncc1C#N)c1ccc(Oc2ccc(I)cc2)cc1F (stereo not shown) [I-189] | 3.48^[a] |
| N#Cc1cncn1CC(O)(c1cccc(F)c1F)C1(F)CC1 (stereo not shown) [I-524] | 2.02^[a] |
| CCCCCC(O)(Cn1cncc1C#N)c1ccc(Cl)cc1Cl (stereo not shown) [I-302] | 3.83^[a] |
| Cc1ccc(C(O)(Cn2cncc2C#N)C2(Cl)CC2)c(Cl)c1 (stereo not shown) [I-331] | 2.58^[a] |
| C[Si](C)(C)CC(O)(Cn1cncc1C#N)c1ccccc1F (stereo not shown) [I-271] | 3.17^[a] |
| N#Cc1cncn1CC(O)c1cnc(Oc2ccc(C(F)F)cc2)cc1C(F)(F)F (stereo not shown) [I-115] | 2.80^[a] |
| CC(O)(Cn1cncc1F)c1ccc(Oc2ccc(Br)cc2)nc1C(F)(F)F (stereo not shown) [I-213] | 2.35^[a] |
| OC(Cn1cncc1Cl)c1ccc(Oc2ccc(OC(F)(F)F)cc2)c(Br)c1 (stereo not shown) [I-05] | 2.82^[a] |
| N#Cc1cncn1CC(O)(CC1CC1)c1c(F)cc(F)cc1F (stereo not shown) [I-511] | 2.34^[a] |
| CC(O)(Cn1cncc1F)c1ccc(Oc2ccc(Cl)cc2)cc1Cl (stereo not shown) [I-194] | 2.34^[a] |
| COC(Cn1cncc1C#N)c1ccc(Oc2ccc(Cl)cc2)cc1Br (stereo not shown) [I-61] | 4.08^[a] |
| CC(O)(Cn1cncc1C#N)c1ccc(Oc2ccc(C(F)(F)F)cc2)cc1C(F)(F)F (stereo not shown) [I-206] | 3.64^[a] |
| N#Cc1cncn1CC(O)(c1cc(Cl)cc(F)c1F)C1(Cl)CC1 (stereo not shown) [I-611] | 2.54^[a] |
| CC(C)(C)CC(O)(Cn1cncc1C#N)c1ccc2occc2c1 (stereo not shown) [I-369] | 2.88^[a] |
| Cc1cc(C(O)(Cn2cncc2C#N)C2(F)CC2)c(F)cc1Cl (stereo not shown) [I-507] | 2.66^[a] |
| COC(Cn1cncc1Cl)c1ccc(Oc2ccc(Br)cc2)cc1Br (stereo not shown) [I-52] | 3.76^[a] |
| CC(O)(Cn1cncc1Cl)c1ccc(Oc2ccc(Br)cn2)cc1Cl (stereo not shown) [I-204] | 2.32^[a] |
| N#Cc1cncn1CC(O)(c1ccc(/C=C/C2CC2)cc1Cl)C1(Cl)CC1 (stereo not shown) [I-365] | 3.37^[a] |
| CC(O)(Cn1cncc1F)c1ccc(Oc2ccc(Cl)cc2)nc1C(F)(F)F (stereo not shown) [I-257] | 2.32^[a] |
| COc1cc(C(O)(Cn2cncc2C#N)C2(F)CC2)c(F)cc1Cl (stereo not shown) [I-508] | 2.34^[a] |
| N#Cc1cncn1CC(O)(c1ccc(F)c(Cl)c1F)C1(Cl)CC1 (stereo not shown) [I-627] | 2.52^[a] |

| Compound | LogP |
| --- | --- |
| N#Cc1cncn1CC(O)(c1cc(Cl)c(Cl)cc1F)C1(F)CC1 (stereo not shown) [I-589] | 2.68^[a] |
| N#Cc1cncn1CC(O)c1ccc(Oc2ccc(Cl)cc2)cc1C(F)(F)F (stereo not shown) [I-41] | 3.35^[a] |
| CC(O)(Cn1cncc1F)c1cnc(Oc2ccc(C(F)(F)F)cc2)cc1Br (stereo not shown) [I-243] | 2.36^[a] |
| C[Si](C)(C)CC(O)(Cn1cncc1C#N)c1ccc(F)cc1 (stereo not shown) [I-227] | 3.05^[a] |
| COc1ccc(C(O)(CC2CC2)Cn2cncc2C#N)c(Cl)n1 (stereo not shown) [I-548] | 2.10^[a] |
| N#Cc1cncn1CC(O)c1ccc(Oc2ccc(Br)cc2)cc1Br (stereo not shown) [I-47] | 3.33^[a] |
| CC(C)C(O)(Cn1cncc1C#N)c1ccc(Cl)cc1 (stereo not shown) [I-288] | 2.31^[a] |
| CC(C)(C)CC(O)(Cn1cncc1C#N)c1ccc(C(F)(F)F)cc1F (stereo not shown) [I-273] | 3.55^[a] |
| OC(Cn1cncc1Br)c1ccc(Oc2ccc(Cl)nc2)nc1Cl (stereo not shown) [I-17] | 1.69^a |
| OC(Cn1cncc1Cl)c1ccc(Oc2ccc(Cl)cc2)cc1 (stereo not shown) [I-15] | 2.18^[a] |
| CC(=O)c1cncn1CC(C)(O)c1ccc(Oc2ccc(Br)cc2)cc1Cl (stereo not shown) [I-197] | 3.07^[a] |
| N#Cc1cncn1CC(O)(c1ccc(Cl)cc1Cl)C1CC1 (stereo not shown) [I-304] | 2.77^[a] |
| CC(C)(C)C(O)(Cn1cncc1C#N)c1cc(F)c(F)c(F)c1 (stereo not shown) [I-462] | 2.76^[a] |
| OC(C#CC1CCCC1)(Cn1cncc1C(F)(F)F)C1(Cl)CC1 (stereo not shown) [I-603] | 3.37^[a] |
| N#Cc1cncn1CC(O)(c1ccc(C#CC2CCCC2)cc1Cl)C1(Cl)CC1 (stereo not shown) [I-656] | 4.15^[a] |
| CC(O)(Cn1cncc1Br)c1ccc(Oc2ccc(Cl)cc2)cc1 (stereo not shown) [I-165] | 2.30^[a] |
| C[Si](C)(C)C#CC(O)(CC1CC1)Cn1cncc1C#N (stereo not shown) [I-454] | 2.70^[a] |
| CCc1ccc(C(O)(Cn2cncc2C#N)C2(Cl)CC2)c(Cl)c1 (stereo not shown) [I-353] | 2.86^[a] |
| N#Cc1cncn1CC(O)(c1ccc(F)cc1F)C1CCC1 (stereo not shown) [I-447] | 2.53^[a] |
| CC(O)(Cn1cncc1F)c1cnc(Oc2ccc(Br)cc2)cc1C(F)(F)F (single isomer, unassigned) [I-221] | 2.39^[a] |
| OC(Cn1cncc1F)c1ccc(Oc2ccc(C(F)F)cc2)nc1C(F)(F)F (stereo not shown) [I-148] | 2.20^[a] |
| OC(Cn1cncc1Cl)c1cnc(Oc2ccc(Cl)cc2)cc1C(F)(F)F (stereo not shown) [I-25] | 2.55^[a] |

Source: patent US20200031778A1, “NOVEL 5-SUBSTITUTED IMIDAZOLYLMETHYL DERIVATIVES” (Bayer CropScience Aktiengesellschaft, priority 2016, published 2020)
